Test results published in publication PMC12390684 (Viruses, 2025).

Biological target: IN-GCN2 interaction (6xHis-IN / GST-GCN2) (UniProt P04585+Q9P2K8)
Test: biochemical
Assay type: binding, HIV-1 IN; human GCN2
Conditions: screen, 100 µM; inactive = within 10% of the DMSO control

Sequence of IN-GCN2 interaction (6xHis-IN / GST-GCN2) (Q9P2K8 192-1024, other chains not shown): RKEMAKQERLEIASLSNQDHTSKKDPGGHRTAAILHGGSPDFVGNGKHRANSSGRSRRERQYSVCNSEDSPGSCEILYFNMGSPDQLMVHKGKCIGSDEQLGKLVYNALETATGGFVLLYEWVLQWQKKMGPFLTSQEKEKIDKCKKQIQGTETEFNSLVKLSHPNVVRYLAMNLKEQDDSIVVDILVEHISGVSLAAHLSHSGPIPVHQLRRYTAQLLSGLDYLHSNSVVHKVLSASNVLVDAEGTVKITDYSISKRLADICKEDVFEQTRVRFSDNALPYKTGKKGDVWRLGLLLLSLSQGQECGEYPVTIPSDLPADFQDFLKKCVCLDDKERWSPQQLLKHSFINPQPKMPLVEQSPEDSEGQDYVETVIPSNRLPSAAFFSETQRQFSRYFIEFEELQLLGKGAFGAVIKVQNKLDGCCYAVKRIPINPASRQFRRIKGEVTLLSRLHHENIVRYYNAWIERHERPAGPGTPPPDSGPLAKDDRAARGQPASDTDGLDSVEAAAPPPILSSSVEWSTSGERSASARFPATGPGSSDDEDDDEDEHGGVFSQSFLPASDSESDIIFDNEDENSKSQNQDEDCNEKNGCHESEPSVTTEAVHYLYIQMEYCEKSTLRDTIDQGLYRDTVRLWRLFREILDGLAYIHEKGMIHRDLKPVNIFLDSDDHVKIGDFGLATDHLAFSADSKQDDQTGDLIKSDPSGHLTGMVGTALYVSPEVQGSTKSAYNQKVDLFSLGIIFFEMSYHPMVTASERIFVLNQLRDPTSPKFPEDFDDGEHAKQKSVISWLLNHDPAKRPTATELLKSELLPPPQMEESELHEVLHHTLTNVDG

Row | SMILES | effect on IN-GCN2 interaction in the screen, in words
1 | COc1cc2c3c(c1O)-c1ccccc1C[C@@H]3N(C)CC2 [NSC785159] | inactive

Same assay, conditions: screen, single dose 100 µM, single replicate; residual AlphaLISA signal normalized to DMSO control

Row | SMILES | IN-GCN2 interaction (%)
2 | CC(=O)CCCCn1c(=O)c2c(ncn2C)n(C)c1=O [NSC637086] | 87.24
3 | C=C1C(=O)C23C(O)C1CCC2C12CCCC(C)(COC(C)=O)C1C(O)C3(O)OC2 (stereo not drawn) [NSC642099] | 95.31
4 | COc1ccc2c3c([nH]c2c1)[C@H](C=C(C)C)N1C(=O)[C@@H]2CCCN2C(=O)[C@@H]1C3 [NSC719655] | 66.56
5 | COc1c(OC)c2c3c(nccc3c1OC)C(=O)c1cc(O)ccc1-2 [NSC785143] | 30.28
6 | COc1c(OC)c2c3c(nccc3c1OC)-c1cc(=O)c(OC)ccc1-2 [NSC785144] | 14.73
7 | COc1cc2c3c(c1OC)-c1ccccc1C[C@H]3N(C)CC2 [NSC785145] | 66.76
8 | COc1ccc2c(c1OC)-c1c(OC)c(OC)cc3c1[C@H](C2)N(C)CC3 [NSC785146] | 58.90
9 | COc1c(O)ccc2c1-c1c3c(cc4c1[C@H](C2)NCC4)OCO3 [NSC785148] | 69.85
10 | COc1c(OC)c2c3c(nccc3c1OC)C(=O)c1ccccc1-2 [NSC785149] | 57.46
11 | COc1c(OC)c2c3c(ncc(OC)c3c1OC)C(=O)c1ccccc1-2 [NSC785150] | 58.33
12 | COc1c(OC)c(OC)c2c3c(cc4ccccc42)NC(=O)C(=O)c13 [NSC785151] | 48.18
13 | COc1ccc2c(c1O)-c1cccc3c1[C@@H](C2)N(C)CC3 [NSC785152] | 66.28
14 | COc1ccc2c(c1OC)-c1cccc3c1[C@@H](C2)N(C)CC3 [NSC785153] | 61.13
15 | c1ccc2c(c1)cc1c3c(cc4c(c32)OCO4)CCN1 [NSC785156] | 39.07
16 | c1cc2c(c3c1C[C@@H]1NCCc4cc5c(c-3c41)OCO5)OCO2 [NSC785157] | 72.19
17 | COc1cc2c3c(c1OC)-c1cc4c(cc1C[C@@H]3N(C)CC2)OCO4 [NSC785161] | 55.76
18 | COc1ccc2c(c1OC)-c1c3c(cc4c1[C@H](C2)N(C)CC4)OCO3 [NSC785162] | 46.45
19 | COc1cc2c(c(O)c1OC)C[C@H]1c3c(c(OC)c4c(c3-2)OCO4)CCN1C [NSC785163] | 34.56
20 | CN1CCc2cc3c(c4c2[C@H]1Cc1ccccc1-4)OCO3 [NSC785164] | 64.36
21 | COc1cc2c3c(c1O)C1(C=CC(=O)C=C1)C[C@@H]3N(C)CC2 [NSC785166] | 94.62
22 | COc1cc2c3c(c1O)-c1cc(O)ccc1C[C@H]3N(C)CC2 [NSC785167] | 75.29
23 | CCOc1ccc2c(c1)-c1c(O)c(OC)cc3c1[C@H](C2)N(C)CC3 [NSC785169] | 40.02
24 | COc1cc2c(cc1OC)[C@@H](Cc1ccc(O)cc1)N(C)CC2 [NSC785172] | 91.61
25 | COc1cc2c3c(c1O)Oc1ccc(cc1)C[C@@H]1c4c(cc(OC)c(OC)c4Oc4ccc(cc4)C[C@@H]3N(C)CC2)CCN1C [NSC785173] | 45.72
26 | COc1cc2c3c(c1OC)Oc1ccc(cc1)C[C@H]1c4c(cc(OC)c(OC)c4Oc4ccc(cc4)C[C@H]3N(C)CC2)CCN1C [NSC785174] | 57.96
27 | COC1=C[C@@H]2[C@@H]3Cc4ccc(OC)c(O)c4[C@]2(CCN3C)CC1=O [NSC785175] | 87.66
28 | COc1cc2c3c(c1O)-c1ccccc1CC3N(C)CC2 (stereo not drawn) [NSC785177] | 73.43
29 | COc1cc2c(cc1O)C[C@H]1c3c(c(OC)c4c(c3-2)OCO4)CCN1C [NSC785179] | 39.12
30 | CC[C@]12CCCN3CC[C@]4(C(=C(C(=O)OC)C1)Nc1ccccc14)[C@@H]32 [NSC785180] | 67.39

Same assay, conditions: screen, single dose 100 µM, single replicate; residual AlphaLISA signal normalized to DMSO control; listed as 785147

Row | SMILES | IN-GCN2 interaction (%)
31 | COc1c(O)ccc2c1-c1c3c(cc4c1[C@H](C2)N(C)CC4)OCO3 [NSC785147] | 67.05

Same assay, conditions: screen, single dose 100 µM, single replicate; residual AlphaLISA signal normalized to DMSO control; listed as 785159

Row | SMILES | IN-GCN2 interaction (%)
32 | COc1cc2c3c(c1O)-c1ccccc1C[C@@H]3N(C)CC2 [NSC785159] | 94.21

Same assay, conditions: screen, single dose 100 µM, single replicate; residual AlphaLISA signal normalized to DMSO control; listed as 785170

Row | SMILES | IN-GCN2 interaction (%)
33 | COc1cc2c3c(c1O)-c1ccccc1C[C@@H]3N(C)CC2 [NSC785170] | 99.49
